Data reported in ChEMBL document CHEMBL5390320, “Discovery of a Novel Benzodiazepine Series of Cbl-b Inhibitors for the Enhancement of Antitumor Immunity” (ACS Med Chem Lett, 2023).
Values belong to the molecule of their own block, whether it stands above or below them.

How the values were obtained:
[1] = molecular target: T1, E3 ubiquitin-protein ligase CBL-B (Homo sapiens, UniProt Q13191); test: Displacement of FAM-labeled probe from recombinant biotinylated Cbl-b (unknown origin) expressed in Escherichia coli BL21(DE3) Tuner cells by TR-FRET assay
[2] = Lipophilicity, log D of the compound in octanol and sodium phosphate buffer at pH 7.4 incubated for 3 hrs under shaking condition by shake flask method based LC-MS/MS analysis; format: physicochemical
[3] = molecular target: T2, Cholecystokinin receptor type A (Homo sapiens, UniProt P32238); test: Displacement of […] from human CCKA receptor expressed in CHO cell membrane incubated for 60 mins by scintillation counter method; format: toxicity, cell membranes
T2 sequence (P32238 whole entry): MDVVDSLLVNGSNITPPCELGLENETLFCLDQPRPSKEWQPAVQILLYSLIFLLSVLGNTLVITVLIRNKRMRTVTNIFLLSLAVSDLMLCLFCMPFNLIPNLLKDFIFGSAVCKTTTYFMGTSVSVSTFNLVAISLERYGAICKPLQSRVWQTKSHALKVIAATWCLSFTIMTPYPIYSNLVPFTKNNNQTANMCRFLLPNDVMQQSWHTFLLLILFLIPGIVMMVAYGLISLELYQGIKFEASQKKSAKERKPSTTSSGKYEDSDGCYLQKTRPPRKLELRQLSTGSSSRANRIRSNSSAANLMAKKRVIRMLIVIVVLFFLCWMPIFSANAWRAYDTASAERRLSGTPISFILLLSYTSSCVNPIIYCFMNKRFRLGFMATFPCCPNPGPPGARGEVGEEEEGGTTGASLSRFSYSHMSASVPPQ

[4] = molecular target: T1, E3 ubiquitin-protein ligase CBL-B; test: Inhibition of Cbl-b in cryo-preserved human CD3-positive T cells assessed as increase in IL-2 production preincubated for 1 hr followed by alpha-CD3 coated stimulation for 24 hrs by flow cytometry method; format: cell-based, CD3-positive T cell
[5] = molecular target: T1, E3 ubiquitin-protein ligase CBL-B; test: Binding affinity to avidin-biotinylated Cbl-b at (36 to 427 residues) (unknown origin) assessed as dissociation constant by SPR analysis
[6] = molecular target: T1, E3 ubiquitin-protein ligase CBL-B; test: Inhibition of recombinant Cbl-b (unknown origin) mediated ZAP70 ubiquitination incubated for 60 mins by TR-FRET assay
[7] = molecular target: T1, E3 ubiquitin-protein ligase CBL-B; test: Inhibition of recombinant Cbl-b (unknown origin) ubiquitination incubated for 60 mins in presence of ATP by TR-FRET assay

T1 sequence (Q13191 whole entry): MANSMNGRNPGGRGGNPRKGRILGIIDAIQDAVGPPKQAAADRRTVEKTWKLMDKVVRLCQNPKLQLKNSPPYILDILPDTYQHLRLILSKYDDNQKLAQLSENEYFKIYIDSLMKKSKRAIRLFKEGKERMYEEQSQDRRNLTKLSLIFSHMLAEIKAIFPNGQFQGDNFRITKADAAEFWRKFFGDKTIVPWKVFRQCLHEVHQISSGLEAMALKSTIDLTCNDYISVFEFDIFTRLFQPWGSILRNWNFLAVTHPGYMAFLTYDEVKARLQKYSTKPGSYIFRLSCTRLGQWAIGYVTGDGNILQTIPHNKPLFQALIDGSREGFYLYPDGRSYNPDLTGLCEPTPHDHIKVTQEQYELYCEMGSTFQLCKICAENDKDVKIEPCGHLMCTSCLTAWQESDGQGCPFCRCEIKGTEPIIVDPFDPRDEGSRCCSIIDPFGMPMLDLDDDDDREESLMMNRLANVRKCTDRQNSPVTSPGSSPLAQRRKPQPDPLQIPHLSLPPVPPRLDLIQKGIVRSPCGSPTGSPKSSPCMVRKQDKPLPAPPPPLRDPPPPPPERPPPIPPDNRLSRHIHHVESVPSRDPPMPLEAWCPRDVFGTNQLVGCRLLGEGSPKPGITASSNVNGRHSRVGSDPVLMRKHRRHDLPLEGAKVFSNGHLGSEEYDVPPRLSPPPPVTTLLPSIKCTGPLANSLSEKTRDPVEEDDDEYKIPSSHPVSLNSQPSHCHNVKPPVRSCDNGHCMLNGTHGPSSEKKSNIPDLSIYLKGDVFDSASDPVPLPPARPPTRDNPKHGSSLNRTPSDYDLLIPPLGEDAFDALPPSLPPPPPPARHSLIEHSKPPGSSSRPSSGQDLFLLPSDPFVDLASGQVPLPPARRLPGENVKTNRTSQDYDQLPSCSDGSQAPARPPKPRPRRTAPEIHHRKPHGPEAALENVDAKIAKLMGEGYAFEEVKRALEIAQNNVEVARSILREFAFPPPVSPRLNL

Structure (SMILES): COCCNC(=O)c1ccc2c(c1)NC(=O)[C@@H](NC(=O)c1ccccc1CN1CCO[C@@H](C)C1)N=C2c1ccccc1
- IC50 [1]: 13 nM
- logD at 3 h [2]: 3.7
- Ki [3]: 24300 nM
- EC50 [4]: 2610 nM

Structure (SMILES): O=C(N[C@H]1N=C(c2ccccc2)c2ccccc2NC1=O)c1ccccc1CN1CCOCC1
- IC50 [1]: 94 nM
- logD at 3 h [2]: 3.9

Structure (SMILES): C[C@H]1CN(Cc2ccccc2C(=O)N[C@H]2N=C(c3ccccc3)c3ccc(C(=O)N4CCN(C)C(=O)C4)cc3NC2=O)CCO1
- IC50 [1]: 13 nM
- logD at 3 h [2]: 2.5
- Ki [3]: > 100000 nM
- EC50 [4]: 1650 nM

Structure (SMILES): C[C@H]1CN(Cc2ccccc2C(=O)N[C@H]2N=C(c3ccccc3)c3ccccc3NC2=O)CCO1
- IC50 [1]: 13 nM
- logD at 3 h [2]: 4.1
- Ki [3]: 3720 nM
- EC50 [4]: 14000 nM

Structure (SMILES): C[C@@H]1CN(Cc2ccccc2C(=O)N[C@H]2N=C(c3ccccc3)c3ccccc3NC2=O)CCO1
- IC50 [1]: 10 nM
- logD at 3 h [2]: 4.1
- Ki [3]: 2630 nM
- EC50 [4]: > 30000 nM

Structure (SMILES): O=C(N[C@@H]1N=C(c2ccccc2)c2ccccc2NC1=O)c1ccccc1CN1CCOCC1
- IC50 [1]: 8000 nM
- logD at 3 h [2]: 3.9

- IC50 [1]: 9 nM
- Kd [5]: 3 nM
Structure (SMILES): C[C@H]1CCCN(Cc2cc3c(c(C(F)(F)F)c2)CN(c2cccc([C@]4(c5nncn5C)C[C@@H](C)C4)c2)C3=O)C1

Structure (SMILES): C[C@H]1CN(Cc2ccccc2C(=O)N[C@H]2N=C(c3ccccc3)c3ccncc3NC2=O)CCO1
- IC50 [1]: 15 nM
- IC50 [6]: 37200 nM
- logD at 3 h [2]: 3.3
- IC50 [7]: 50500 nM
- Ki [3]: > 100000 nM
- EC50 [4]: 410 nM

Structure (SMILES): C[C@@H]1CN(Cc2ccccc2C(=O)NC2N=C(c3ccccc3)c3ccccc3NC2=O)C[C@H](C)O1 (mixture of isomers)
- IC50 [1]: 1800 nM
- logD at 3 h [2]: 4.3

Structure (SMILES): C[C@@H]1CN(Cc2ccccc2C(=O)NC2N=C(c3ccccc3)c3ccccc3NC2=O)CCO1 (mixture of isomers)
- IC50 [1]: 31 nM
- logD at 3 h [2]: 4.1

Structure (SMILES): C[C@H]1COCCN1Cc1ccccc1C(=O)NC1N=C(c2ccccc2)c2ccccc2NC1=O (mixture of isomers)
- IC50 [1]: 1900 nM
- logD at 3 h [2]: 4

Structure (SMILES): C[C@H]1CN(Cc2ccccc2C(=O)NC2N=C(c3ccccc3)c3ccccc3NC2=O)CCO1 (mixture of isomers)
- IC50 [1]: 26 nM
- logD at 3 h [2]: 4.2

Structure (SMILES): C[C@@H]1COCCN1Cc1ccccc1C(=O)NC1N=C(c2ccccc2)c2ccccc2NC1=O (mixture of isomers)
- IC50 [1]: 4800 nM
- logD at 3 h [2]: 3.9

Structure (SMILES): O=C(NC1N=C(c2ccccc2)c2ccccc2NC1=O)c1ccccc1CN1CCOCC1 (racemic)
- IC50 [1]: 210 nM
- logD at 3 h [2]: 3.8
- Kd [5]: 400 nM

Structure (SMILES): O=C(NC1N=C(c2ccccc2)c2ccccc2NC1=O)c1ccoc1CN1CCOCC1 (racemic)
- IC50 [1]: 1500 nM
- logD at 3 h [2]: 3.1

Structure (SMILES): O=C(NC1N=C(c2ccccc2)c2ccccc2NC1=O)c1ccccc1N1CCOCC1 (racemic)
- IC50 [1]: > 100000 nM

Structure (SMILES): O=C(NC1N=C(c2ccc[nH]c2=O)c2ccccc2NC1=O)c1ccccc1CN1CCOCC1 (racemic)
- IC50 [1]: 20000 nM
- logD at 3 h [2]: 1.2

Structure (SMILES): O=C(NC1N=C(c2ccccc2)c2ccccc2NC1=O)c1ccccc1CN1CCn2nccc2C1 (racemic)
- IC50 [1]: 710 nM
- logD at 3 h [2]: 3.9

Structure (SMILES): O=C(NC1N=C(c2ccccc2)c2ccccc2NC1=O)c1cnccc1CN1CCOCC1 (racemic)
- IC50 [1]: 1300 nM
- logD at 3 h [2]: 2.7

Structure (SMILES): O=C(NC1N=C(c2ccccc2)c2ccccc2NC1=O)c1sccc1CN1CCOCC1 (racemic)
- IC50 [1]: 360 nM
- logD at 3 h [2]: 3.3

Structure (SMILES): Cn1ncc2c1CN(Cc1ccccc1C(=O)NC1N=C(c3ccccc3)c3ccccc3NC1=O)C2 (racemic)
- IC50 [1]: 350 nM
- logD at 3 h [2]: 3.8

Structure (SMILES): O=C(NC1N=C(c2ccccc2)c2ccccc2NC1=O)c1ccccc1CN1CCCCC1 (racemic)
- IC50 [1]: > 100000 nM

Structure (SMILES): CC1(C)CN(Cc2ccccc2C(=O)NC2N=C(c3ccccc3)c3ccccc3NC2=O)CCO1 (racemic)
- IC50 [1]: 3900 nM
- logD at 3 h [2]: 4.3

Structure (SMILES): O=C(NC1N=C(c2cc[nH]c(=O)c2)c2ccccc2NC1=O)c1ccccc1CN1CCOCC1 (racemic)
- IC50 [1]: 11000 nM
- logD at 3 h [2]: 1.7

Structure (SMILES): O=C(NC1N=C(c2ccncc2)c2ccccc2NC1=O)c1ccccc1CN1CCOCC1 (racemic)
- IC50 [1]: 2000 nM
- logD at 3 h [2]: 2.6

Structure (SMILES): O=C(NC1N=C(c2ccccc2)c2ccccc2NC1=O)c1ccccc1CN1CCn2nncc2C1 (racemic)
- IC50 [1]: 300 nM
- logD at 3 h [2]: 2.9
